Each block holds one molecule with its values, some of them ahead of it. Ends that are not written are not given here.
Tests used:
[1] = tested on: TFEB nuclear translocation; conditions: cited from earlier work
purified recombinant CN = purified recombinant CN (Rattus norvegicus, UniProt P63100+P63329); test: Fluorescence polarization
CN [2] = target: CN (Rattus norvegicus, UniProt P63100+P63329); test: CN phosphatase colorimetric assay with RII phosphopeptide as substrate; type: biochemical
CN [3] = conditions: kinetics comparable to intact RII; cited from earlier work
[4] = tested on: CNA in mouse brain lysates; test: GST pull-down of CNA from mouse brain lysates; type: binding; conditions: addition of synthetic peptide to pull-down
[5] = tested on: interaction between GST-CNA and GFP-TFEB; test: GST pull-down of GFP-TFEB by GST-CNA; type: binding; conditions: quercetin 50 μM and 100 μM; GFP-TFEB transfected in HeLa cells
[6] = target: NFAT PRIEIT peptide (Homo sapiens); conditions: cited from earlier work
PVIVIT peptide = conditions: cited from earlier work

Chain of purified recombinant CN (P63100 whole entry, other chains not shown): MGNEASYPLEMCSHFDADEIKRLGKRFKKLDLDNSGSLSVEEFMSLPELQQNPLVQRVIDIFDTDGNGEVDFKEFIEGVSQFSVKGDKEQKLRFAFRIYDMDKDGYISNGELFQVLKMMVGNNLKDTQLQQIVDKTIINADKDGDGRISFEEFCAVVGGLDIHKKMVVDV

Molecule: C=CC[C@@H]1/C=C(\C)C[C@H](C)C[C@H](OC)[C@H]2O[C@@](O)(C(=O)C(=O)N3CCCC[C@H]3C(=O)O[C@H](/C(C)=C/[C@@H]3CC[C@@H](O)[C@H](OC)C3)[C@H](C)[C@@H](O)CC1=O)[C@H](C)C[C@@H]2OC [FK506]
TFEB nuclear translocation during starvation [1]: reduce TFEB nuclear translocation

IC50 (purified recombinant CN): ~5 µM
Molecule: CC(C)C[C@H](NC(=O)[C@H](Cc1ccc(O)cc1)NC(=O)[C@H](CCC(N)=O)NC(=O)[C@@H](N)CC(=O)O)C(=O)N[C@@H](C)C(=O)N[C@H](C(=O)N1CCC[C@H]1C(=O)N[C@@H](CCC(N)=O)C(=O)N[C@@H](Cc1c[nH]cn1)C(=O)N1CCC[C@H]1C(=O)N[C@@H](Cc1ccc(O)cc1)C(=O)N[C@@H](CCC(N)=O)C(=O)N[C@@H](Cc1c[nH]c2ccccc12)C(=O)N[C@@H](C)C(=O)N[C@@H](CCCCN)C(=O)O)C(C)C [NFATc1-YLAVP]

IC50 (CN [2]): 130 µM
Molecule: ESILLVPPTWPKPLV [NFATc2-ILLVP]

Molecule: DLDVPIPGRFDRRVpSVAAE [RII phosphopeptide]
Vmax of dephosphorylation by CN (CN [3]): 1.7 µmol/min/mg

Molecule: QSYLENPTSYHLQQS [TFEB-YLENP]
effect on interaction between GST-TFEB-YLENP and CNA [4]: greatly inhibited

IC50 (CN [2]): 131 µM
Molecule: GSSHLAPPNPDKQFL [RCAN1-HLAPP]

Molecule: O=c1c(O)c(-c2ccc(O)c(O)c2)oc2cc(O)cc(O)c12 [quercetin]
effect on interaction between GST-CNA and GFP-TFEB [5]: blocks the interaction

Molecule: Calcineurin (from UniProt Q08209)
Kd [6]: 25 µM
Kd (PVIVIT peptide): 0.5 µM
